Drawing on patent publication US20020019412A1, “MODULATORS OF PROTEIN TYROSINE PHOSPHATASES (PTPASES)” (priority 1998, published 2002), this text covers melting point and Ki for 2 compounds.

The target in data set [1] is T1, PTP1B (Homo sapiens, UniProt P18031).
T1 construct: a truncated form of PTP1B (corresponding to the first 321 amino acids); made in house; host or cells: E. coli
T1 sequence (P18031 1-321): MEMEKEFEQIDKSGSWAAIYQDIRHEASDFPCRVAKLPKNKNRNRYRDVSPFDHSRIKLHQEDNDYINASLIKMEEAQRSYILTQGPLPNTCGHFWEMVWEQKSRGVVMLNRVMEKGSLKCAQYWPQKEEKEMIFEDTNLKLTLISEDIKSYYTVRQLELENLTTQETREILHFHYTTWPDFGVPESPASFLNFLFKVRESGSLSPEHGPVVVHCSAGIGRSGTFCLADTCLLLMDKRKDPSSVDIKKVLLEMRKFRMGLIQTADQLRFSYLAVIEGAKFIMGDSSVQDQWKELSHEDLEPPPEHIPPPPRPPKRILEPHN
Nature of the data set: Inhibition of truncated PTP1B, p-nitrophenyl phosphate substrate. The conditions noted are these: truncated PTP1B (first 321 amino acids) expressed in E. coli; pNPP substrate; pH 5.5; 25° C., 60 minutes. It is filed as biochemical. As for the experimental part:
The compounds are evaluated for biological activity with a truncated form of PTP1B (corresponding to the first 321 amino acids), which is expressed in E. coli and purified to apparent homogeneity using published procedures well-known to those skilled in the art. The enzyme reactions are carried out using standard conditions essentially as described by Burke et al. (Biochemistry 35; 15989-15996 (1996)). The assay conditions are as follows. Appropriate concentrations of the compounds of the invention are added to the reaction mixtures containing different concentrations of the substrate, p-nitrophenyl phosphate (range: 0.16 to 10 mM—final assay concentration). The buffer used is 100 mM sodium acetate pH 5.5, 50 mM sodium chloride, 0.1% (w/v) bovine serum albumin and 5 mM dithiothreitol (total volume […]). The reaction is started by addition of the enzyme and carried out in microtiter plates at 25° C. for 60 minutes. The reactions are stopped by addition of NaOH. The enzyme activity is determined by measurement of the absorbance at 405 nm with appropriate corrections for absorbance at 405 nm of the compounds and p-nitrophenyl phosphate. The data are analyzed using nonlinear regression fit to classical Michaelis Menten enzyme kinetic models. Inhibition is expressed as Ki values in μM.

Structures can show the parent of a compound that is named as a salt.

By melting point is commonly meant the temperature, or range, at which the solid turns liquid. As usually defined, the Ki is the dissociation constant of the complex between target and ligand, obtained from inhibition or displacement. Low values mean higher affinity, high ones lower affinity.

In turn, `O=C(O)C(=O)Nc1c(C(=O)O)sc2ncccc12` (as salt: sodium) [Example 1, 3-(Oxalyl-amino)-thieno[2,3-b]pyridine-2-carboxylic acid, mono sodium salt] showed a melting point of more than 250 °C.

The compound `O=C(O)C(=O)Nc1c(C(=O)O)sc2ncccc12` [Example 1, 3-(Oxalyl-amino)-thieno[2,3-b]pyridine-2-carboxylic acid, mono sodium salt] returned a Ki in data set [1] of 330 µM.
